pIC50: −log10 of the molar value. Values after ≈ are worked out from the molar mass of the structure shown. Where two headings read alike, the source gives them in different places.
Assays:
mouse L cells [1] = test: Reversal of Cytotoxic Activity on mouse L cells
L cells = test: Cell Culture Cytotoxicity Test, L cells; type: cell-based; conditions: Mus musculus; 50 % of control; 70-76 hours of incubation; read-out: Concentration giving 50 % of Control, L-Cells
Procedure: (§1) B. Cell Culture Cytotoxicity Test Data
(§2) The two routine indicator cell lines used are (1.) D98, a twice-cloned derivative of Detroit 98s from American Type Culture Collection (ATCC) strain CCL 18.1, from human sternal bone marrow and (2.) L, a cloned derivative from NCTC 929 (ATCC CCL1,) a C3 H/An from mouse connective tissue. Inoculation densities for L and D98 cells are 1.0 and 1.5×10^5 cells, per cm^2, respectively. Control cells are grown in Eagle's MEM (Earle's salts, 10% horse serum, 100 units/ml potassium penicillin G and 100 μg/ml streptomycin) and should show at least two doublings during the test period. Test plates are seeded with similar quantities of cells and are grown in the same medium with test compounds added. Total "cell counts" are made with an electronic cell counter after 70-76 hours of incubation with one medium change at 20-26 hours. Dose response curves are prepared by plotting percent of control vs. concentration of compound.
(§3) The compounds of the invention included in this test and the results are as follows.

Spiroplasma citri = test: Activity Against Spiroplasma citri, Sensitivity Test; type: cell-based; conditions: for MIC: Spiroplasma citri, 48 h, 32° C., no color change or two day delay in color change; for activity against the mycoplasma, Spiroplasma citri: in words
Procedure: D. Data for Activity Against Spiroplasma citri, Sensitivity Test
Frozen broth cultures are diluted to a predetermined titre of 100 color changing units for the test. Organisms are grown in Difco PPLO broth base with added serum, glucose, phenol red, ampicillin, thallium acetate and yeast extract. Incubation is at 32° C. Incubation with varying levels of the test compound in the above medium are performed in well plates and an amount of Spiroplasma citri cells is added that will produce a color change by a fixed time of growth. The lowest concentration of compound that fails to produce a color change or gives a two day delay in color change indicates minimum inhibitory concentration.
The compounds of the invention included in this test and the results are as follows: […]

yellow fever virus = conditions: in words
Streptococcus faecium = test: activity against Streptococcus faecium; type: cell-based; conditions: in words
Lactobacillus casei = test: activity against Lactobacillus casei; type: cell-based; conditions: in words
D98 cells = test: Cell Culture Cytotoxicity Test, D98 cells; type: cell-based; conditions: Homo sapiens; 50 % of control; 70-76 hours of incubation; read-out: Concentration giving 50 % of Control, D-98 Cells
Procedure: as §1, §2, §3

[2] = tested on: lymphocytic leukemia P388/0; test: Lymphocytic Leukemia P388/0 Test (survival, mice); type: in vivo, CD2-F1 mice
Text: A. Anti-neoplastic Activity Data for Lymohocytic Leukemia P388/0 Test
The tests employed for the evaluation of anti-neoplastic activity of the compounds of the present invention are essentially those used in the Tumor Panel of the Developmental Therapeutics Program, Division of Cancer Treatment, National Cancer Institute, A. Goldin, et al., Methods in Cancer Research, Vol. XVI, p. 165, Academic Press (1979). Some modifications, in dose level and schedule have been made to increase the testing efficiency.
CD2-F1 -mice, of the same sex, weighing within a 3 g range surrounding 20 g, are used for this test. Control and test animals are injected intraperitoneally with a suspension of […] viable P388/0 tumor cells on day 0. In each test, several dose levels which bracket the LD20 of the compound are evaluated; each dose level group contains six animals. The test compound is prepared either in physiologic saline containing 0.05% Tween 80 or distilled water containing 5% dextrose and is administered intraperitoneally on the indicated schedule relative to tumor implant. Doses are on a mg/kg basis according to individual animals' body weights. The day of death for each animal is recorded, the median identified for each group and the percent increase in life span (% ILS) is calculated from the ratio of survival time of treatment to control groups. The criterion for activity is % ILS greater than or equal to 20%.
The compound of the invention included in this test was the compound of Example 1, namely N-[4-[3-(2,4-diamino-1,6-dihydro-6-oxo-5-pyrimidinyl)propylamino]benzoyl]- L-glutamic acid and the results are as follows.

[3] = colour change on extended exposure to light; type: physicochemical; conditions: white powder
mouse L cells [4] = tested on: mouse L cells

NC(=O)c1ncn([C@@H]2O[C@H](COP(=O)(O)O)[C@@H](O)[C@H]2O)c1N [AICAR, 5-aminoimidazole-4-carboxamide ribonucleotide, reference compound]
reversal of the cytotoxicity of the compound of Example 3 (mouse L cells [1]; rescue agent against Example 3): able to reverse the cytotoxicity

Nc1nc(N)c(CCCNc2ccc(C(=O)N[C@@H](CCC(=O)O)C(=O)O)cc2)c(=O)[nH]1 [Example 1, N-[4-[3-(2,4-diamino-1,6-dihydro-6-oxo-5-pyrimidinyl)propylamino]benzoyl]-L-glutamic acid]
pIC50 (L cells): 7.06
activity at 0.2 µM (mouse L cells [1]; Mus musculus, read-out: % of Control, compound alone, 2 × 10^-7 M (experiment with Ca leucovorin)): 36%
activity at 0.2 µM (mouse L cells [1]; Mus musculus, read-out: % of Control, compound alone, 2 × 10^-7 M (experiment with hypoxanthine)): 40%
MIC (Spiroplasma citri): 0.01 µM (≈ 0.00432 µg/mL)
activity against the mycoplasma, Spiroplasma citri (Spiroplasma citri): activity
activity against yellow fever virus (yellow fever virus): some activity
activity against Streptococcus faecium (Streptococcus faecium): activity
activity against Lactobacillus casei (Lactobacillus casei): activity
pIC50 (D98 cells): 6.96
% Increased Life Span ([2]; 2.5 mg/kg i.p., twice a day, on days 1, 2 and 3): +20%
% Increased Life Span ([2]; 5 mg/kg i.p., every 4 hours for 3 doses on days 1-4): +22%
% Increased Life Span ([2]; 5 mg/kg i.p., every hour for 8 doses on days 1 and 3): +60%
% Increased Life Span ([2]; 5 mg/kg i.p., twice a day, on days 1, 2, and 3): +35%
% Increased Life Span ([2]; 7.5 mg/kg i.p., twice a day, on days 1, 2 and 3): +40%
% Increased Life Span ([2]; 10 mg/kg i.p., every 4 hours for 3 doses on days 1-4): +80%
% Increased Life Span ([2]; 20 mg/kg i.p., every hour for 8 doses on days 1 and 3): +60%
% Increased Life Span ([2]; 182 mg/kg i.p., day 1, 5, 9): +20%

CN(CCCc1c(N)nc(N)[nH]c1=O)c1ccc(C(=O)N[C@@H](CCC(=O)O)C(=O)O)cc1 [Example 2, N-[4-[3-(2,4-diamino-1,6-dihydro-6-dihydro-6-oxo-5-pyrimidinyl)-N-methylpropylamino]benzoyl]-L-glutamic acid]
pIC50 (L cells): 6.40
MIC (Spiroplasma citri): 0.1 µM (≈ 0.0446 µg/mL)
activity against the mycoplasma, Spiroplasma citri (Spiroplasma citri): activity
pIC50 (D98 cells): 5.52

Nc1nc(N)c(CCCN(C=O)c2ccc(C(=O)N[C@@H](CCC(=O)O)C(=O)O)cc2)c(=O)[nH]1 [Example 3, N-[4-[3-(2,4-Diamino-1,6-dihydro-6-oxo-5-pyrimidinyl)-N-formylpropylamino]benzoyl]-L-glutamic acid]
pIC50 (L cells): 7.74
activity at 0.04 µM (mouse L cells [1]; Mus musculus, read-out: % of Control, compound alone, 4 × 10^-8 M): 37%
MIC (Spiroplasma citri): 0.1 µM (≈ 0.046 µg/mL)
activity against the mycoplasma, Spiroplasma citri (Spiroplasma citri): activity
activity against yellow fever virus (yellow fever virus): some activity
pIC50 (D98 cells): 6.68

Nc1nc(N)c(CCNc2ccc(C(=O)N[C@@H](CCC(=O)O)C(=O)O)cc2)c(=O)[nH]1 [Example 4, N-[4-[2-(2,4-diamino-1,6-dihydro-6-oxo-5-pyrimidinyl)ethylamino]benzoyl]-L-glutamic acid]
pIC50 (L cells): 6.40
pIC50 (D98 cells): 6.15

CN(CCc1c(N)nc(N)[nH]c1=O)c1ccc(C(=O)N[C@@H](CCC(=O)O)C(=O)O)cc1 [Example 5, N-[4-[2-(2,4-diamino-1,6-dihydro-6-oxo-5-pyrimidinyl)ethyl-N-methylamino]benzoyl]-L-glutamic acid]
pIC50 (L cells): 6.12
colour change upon extended exposure to light [3]: became tan upon extended exposure to light
pIC50 (D98 cells): 5.15

Nc1nc2c(c(=O)[nH]1)N(C=O)C(CNc1ccc(C(=O)N[C@@H](CCC(=O)O)C(=O)O)cc1)CN2 (stereo partly shown) [calcium leucovorin]
reversal of the cytotoxicity of the compound of Example 1 (mouse L cells [4]): able to reverse the cytotoxicity
reversal of the cytotoxicity of the compound of Example 3 (mouse L cells [4]): able to reverse the cytotoxicity

O=c1[nH]cnc2nc[nH]c12 [hypoxanthine]
reversal of the cytotoxicity of the compound of Example 1 (mouse L cells [4]): able to reverse the cytotoxicity
reversal of the cytotoxicity of the compound of Example 3 (mouse L cells [4]): able to reverse the cytotoxicity

From patent publication US4880812A, “Pyrimidine compounds” (Burroughs Wellcome Co., priority 1986, dated 1989)
